Assay results reported in patent US5747482A, “Methods and compositions to inhibit keratinocyte proliferation” (priority 1996, dated 1998).
Read-outs that look alike come from different tables or passages of the source.

Experiments:
[1] = oral; cited from earlier work
keratinocyte cells [2] = assay type: cell-based, human; conditions: gallium nitrate 5×10^-4 M; maltol 15×10^-4 M; 2 days treatment, 1.2 mM Ca^+2; FIG. 7
Description: (§1) Adult human keratinocytes from pooled donor skin were obtained from commercial sources (Cascade Biologics, Portland, Oreg., U.S.A.) and placed in 150 cm^2 bottom area culture flasks using culture medium 154 supplemented with HKGS (about 1%). At 80% confluency, cells were harvested with trypsin and cryopreserved until required.
(§2) Culture was renewed for a further 24 hours. At this time, media were removed and discarded, and the cells lysed with 200 μL/well of the solution provided in the Cell Death Detection Kit ELISA Plus (Boehringer Mannheim Biochemicals, Indianapolis, Ind., U.S.A., catalogue number 1774425). Aliquots of the lysate (20 μL) from each of 2 or 3 wells were assayed for nucleosomal enrichment following the kit instructions.
The evaluation of apoptosis of keratinocytes was conducted to determine the relative affect on apoptosis achieved by gallium maltol, gallium nitrate and maltol. Specifically, keratinocyte cells were seeded in 12 well plates seed using culture medium 154. Cultures were continued for 4 days and the medium was changed to medium 154 with 1.2 mM Ca^+2 either without supplement or with one of the following supplements:
1. gallium maltol at a final concentration of 5×10^-4 M;
2. gallium nitrate at a final concentration of 5×10^-4 M;
3. maltol at a concentration of 15×10^-4 M; and
4. CAM at a concentration of 1×10^-5 M.
Three (3) wells were used in each group. The final amount of medium was 300 μL in each well. Culture was continued for 2 days. Bars represent absorbance at 405 nm minus the absorbance at 492 nm.

Keratinocytes = assay: Comparison of keratinocyte growth inhibition by gallium maltol, gallium nitrate and maltol, Example 3; assay type: cell-based, human; conditions: gallium nitrate 1×10^-4 M; maltol 3×10^-4 M; 9 days, high Ca^+2 medium; FIG. 3
Excerpt: as §1
At the start of the experiments, the required number of vials of keratinocytes was thawed, and the keratinocytes were placed in culture in 24 well plates at about 2,500 cells/cm^2 using the same culture medium as described above. After 24 hours (to allow attachment), the medium was changed to fresh 154 supplemented with HKGS (about 1%) and gallium maltol. Specifically, the fresh medium was prepared by addition of a sufficient amount of a stock solution to provide for six different compositions having a final gallium concentration of 10^-4 M, 10^-5 M, 10^-6 M, 10^-8 M, 10^-10 M, and 10^-12 M. The stock solution was prepared by adding 22.25 mg of gallium maltol to 50 mL of 154 medium and then passing the solution through a 0.2 μm filter and storing at 4° C.
When control cells were about 40% confluent (generally at 4-5 days in culture, all media were removed by aspiration, keratinocyte growth was assayed by crystal violet staining and conversion to cell numbers as described by Wilkinson, et al.^11. Specifically, cell layers rinsed in PBS, which was also aspirated, and 4 drops of crystal violet solution added to each well. The crystal violet solution was prepared by dissolving crystal violet (Fisher Scientific) in PBS:formaldehyde:ethanol (67:3:30%) to give a 0.5 w/v solution. A blank 24-well plate was treated similarly.
Keratinocytes were cultured in 24-well plates for 9 days in the manner described above in Example 2. […]
The cells were then cultured and subsequently evaluated for inhibition of keratinocyte proliferation in the manner described above.

keratinocyte cells [3] = assay type: cell-based, human; conditions: for induction of apoptosis: 24 hours treatment
Excerpt: as §1
The induction of apoptosis is a critical feature in the programmed cell death as it relates to disease conditions such as cancer, psoriasis, etc. where the uncontrolled proliferation of "immortal" cells such as keratinocytes is a causative feature of the disease. This example compares the ability of gallium maltol to induce apoptosis as compared to negative control (no gallium maltol), and positive control (CAM--an agent known to strongly induce apoptosis). The ability for gallium maltol to effect apoptosis was also measured by the inhibitory effect of ATA.
Specifically, keratinocyte cells were grown using medium 154 in 24 well plates seed with 2,500 cells/cm^2 as described above. Cultures were continued for 3 or 6 days when the cells had achieved about 20 or 60% confluence respectively. On these 2 occasions, media were aspirated from groups of 3 or 4 wells and replaced with high Ca^+2 medium either without supplement or with one of the following supplements:
1. Gallium maltol at a final concentration of one of the following: (a) 5×10^-4 M, (b) 1×10^-4 M, (c) 5×10^-5 M, (d) 1×10^-5 M, and (e) 1×10^-6 M;
4. As in (3) plus CAM at 1×10^-5 or 1×10^-6 M; and
5. As in (3) plus gallium maltol at 1×10^-4 or 2.5×10^-4 M;
as §2

SMILES	toxicity when taken orally [1]	effect on apoptosis (keratinocyte cells [2])	effect on keratinocyte proliferation (Keratinocytes)	further results
Cc1occc(=O)c1O [maltol, 3-hydroxy-2-methyl-4-pyrone]	very low toxicities when taken orally	no significant effect on apoptosis	neither gallium nitrate nor maltol had any effect on keratinocyte proliferation	–
O=C(O)C1=CC(=C(c2ccc(O)c(C(=O)O)c2)c2ccc(O)c(C(=O)O)c2)C=CC1=O [ATA, aurin tricarboxylic acid, reference compound]	–	–	–	reduction of CAM-induced apoptosis (keratinocyte cells [3]; 1×10^-4 M ATA + 1×10^-5 M CAM, cultured 3 days prior, FIG. 5): reduced by half; reduction of CAM-induced apoptosis (keratinocyte cells [3]; 1×10^-4 M ATA + 1×10^-6 M CAM, cultured 6 days prior, FIG. 6): reduced by half
CCc1occc(=O)c1O [ethyl maltol, 3-hydroxy-2-ethyl-4-pyrone]	very low toxicities when taken orally	–	–	–
O=[N+]([O-])[O-].O=[N+]([O-])[O-].O=[N+]([O-])[O-].[Ga+3] [gallium nitrate]	–	no significant effect on apoptosis	neither gallium nitrate nor maltol had any effect on keratinocyte proliferation	–
CC[C@@]1(O)C(=O)OCc2c1cc1n(c2=O)Cc2cc3ccccc3nc2-1 [CAM, camptothecin, reference compound]	–	–	–	induction of apoptosis (keratinocyte cells [3]; 1×10^-5 M, cultured 3 days prior, FIG. 5): strongly induced apoptosis; induction of apoptosis (keratinocyte cells [3]; 1×10^-6 M, cultured 6 days prior, FIG. 6): strongly induced apoptosis
